Source: ChEMBL document CHEMBL1201861, “Genomics of Drug Sensitity in Cancer screening data, Wellcome Trust Sanger Institute”

system: HL-60; experiment: cells; type: functional, cell-based, Homo sapiens; conditions: Homo sapiens, HL-60;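 also: growth inhibition of human HL-60 cells, read out with a cell viability assay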
Description: SANGER: Inhibition of human HL-60 cell growth in a cell viability assay.

| Compound | IC50 [µM] |
| --- | --- |
| Nc1ccn([C@@H]2O[C@H](CO)[C@@H](O)C2(F)F)c(=O)n1 [GEMCITABINE] | 0.0157 |

system: SHP77; experiment: cells; type: functional, cell-based, Homo sapiens, SHP-77; conditions: Homo sapiens, SHP77;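 also: growth inhibition of human SHP-77 cells measured by a cell viability assay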
Description: SANGER: Inhibition of human SHP-77 cell growth in a cell viability assay.

| Compound | IC50 [µM] |
| --- | --- |
| Nc1ccn([C@@H]2O[C@H](CO)[C@@H](O)C2(F)F)c(=O)n1 [GEMCITABINE] | > 1.02 |

system: CW-2; experiment: cells; type: functional, cell-based, Homo sapiens; conditions: Homo sapiens, CW-2;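 also: growth inhibition of CW-2 cells, read out by a cell viability assay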
Description: SANGER: Inhibition of human CW-2 cell growth in a cell viability assay.

| Compound | IC50 [µM] |
| --- | --- |
| Nc1ccn([C@@H]2O[C@H](CO)[C@@H](O)C2(F)F)c(=O)n1 [GEMCITABINE] | > 1.02 |

system: A388; experiment: cells; type: functional, cell-based, Homo sapiens; conditions: Homo sapiens, A388;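 also: growth inhibition of human A388 cells, read out with a cell viability assay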
Description: SANGER: Inhibition of human A388 cell growth in a cell viability assay.

| Compound | IC50 [µM] |
| --- | --- |
| Nc1ccn([C@@H]2O[C@H](CO)[C@@H](O)C2(F)F)c(=O)n1 [GEMCITABINE] | 0.00136 |

system: KINGS-1; experiment: cells; type: functional, cell-based, Homo sapiens; conditions: Homo sapiens, KINGS-1;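 also: cell viability assay measuring suppression of KINGS-1 cell growth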
Description: SANGER: Inhibition of human KINGS-1 cell growth in a cell viability assay.

| Compound | IC50 [µM] |
| --- | --- |
| Nc1ccn([C@@H]2O[C@H](CO)[C@@H](O)C2(F)F)c(=O)n1 [GEMCITABINE] | > 1.02 |

system: HCE-4; experiment: cells; type: functional, cell-based, Homo sapiens; conditions: Homo sapiens, HCE-4;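 also: cell viability assay measuring inhibition of growth in the human HCE-4 cell line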
Description: SANGER: Inhibition of human HCE-4 cell growth in a cell viability assay.

| Compound | IC50 [µM] |
| --- | --- |
| Nc1ccn([C@@H]2O[C@H](CO)[C@@H](O)C2(F)F)c(=O)n1 [GEMCITABINE] | < 0.004 |

system: KS-1; experiment: cells; type: functional, cell-based, Homo sapiens; conditions: Homo sapiens, KS-1;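 also: growth inhibition of KS-1 cells, read out with a cell viability assay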
Description: SANGER: Inhibition of human KS-1 cell growth in a cell viability assay.

| Compound | IC50 [µM] |
| --- | --- |
| Nc1ccn([C@@H]2O[C@H](CO)[C@@H](O)C2(F)F)c(=O)n1 [GEMCITABINE] | 0.167 |

system: MEG-01; experiment: cells; type: functional, cell-based, Homo sapiens; conditions: Homo sapiens, MEG-01;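 also: growth inhibition of MEG-01 cells, read out by a cell viability assay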
Description: SANGER: Inhibition of human MEG-01 cell growth in a cell viability assay.

| Compound | IC50 [µM] |
| --- | --- |
| Nc1ccn([C@@H]2O[C@H](CO)[C@@H](O)C2(F)F)c(=O)n1 [GEMCITABINE] | 0.00127 |

system: GI-1; experiment: cells; type: functional, cell-based, Homo sapiens; conditions: Homo sapiens, GI-1;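 also: growth inhibition of human GI-1 cells, measured with a cell viability readout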
Description: SANGER: Inhibition of human GI-1 cell growth in a cell viability assay.

| Compound | IC50 [µM] |
| --- | --- |
| Nc1ccn([C@@H]2O[C@H](CO)[C@@H](O)C2(F)F)c(=O)n1 [GEMCITABINE] | 0.00276 |

system: no-10; experiment: cells; type: functional, cell-based, Homo sapiens; conditions: Homo sapiens;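 also: growth inhibition of no-10 cells, read out with a cell viability assay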
Description: SANGER: Inhibition of human no-10 cell growth in a cell viability assay.

| Compound | IC50 [µM] |
| --- | --- |
| Nc1ccn([C@@H]2O[C@H](CO)[C@@H](O)C2(F)F)c(=O)n1 [GEMCITABINE] | 0.174 |

system: EW-16; experiment: cells; type: functional, cell-based, Homo sapiens; conditions: Homo sapiens, EW-16;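 also: growth inhibition of human EW-16 cells, read out as cell viability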
Description: SANGER: Inhibition of human EW-16 cell growth in a cell viability assay.

| Compound | IC50 [µM] |
| --- | --- |
| Nc1ccn([C@@H]2O[C@H](CO)[C@@H](O)C2(F)F)c(=O)n1 [GEMCITABINE] | < 0.004 |

system: KG-1; experiment: cells; type: functional, cell-based, Homo sapiens; conditions: Homo sapiens, KG-1;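 also: growth inhibition of KG-1 cells, read out by a cell viability assay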
Description: SANGER: Inhibition of human KG-1 cell growth in a cell viability assay.

| Compound | IC50 [µM] |
| --- | --- |
| Nc1ccn([C@@H]2O[C@H](CO)[C@@H](O)C2(F)F)c(=O)n1 [GEMCITABINE] | 0.0622 |

system: KM-H2; experiment: cells; type: functional, cell-based, Homo sapiens; conditions: Homo sapiens, KM-H2;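 also: growth inhibition of KM-H2 cells, read out by a cell viability assay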
Description: SANGER: Inhibition of human KM-H2 cell growth in a cell viability assay.

| Compound | IC50 [µM] |
| --- | --- |
| Nc1ccn([C@@H]2O[C@H](CO)[C@@H](O)C2(F)F)c(=O)n1 [GEMCITABINE] | 0.261 |

system: TK-10; experiment: cells; type: functional, cell-based, Homo sapiens; conditions: Homo sapiens, TK-10;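 also: growth inhibition of TK-10 cells, read out in a cell viability assay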
Description: SANGER: Inhibition of human TK10 cell growth in a cell viability assay.

| Compound | IC50 [µM] |
| --- | --- |
| Nc1ccn([C@@H]2O[C@H](CO)[C@@H](O)C2(F)F)c(=O)n1 [GEMCITABINE] | 0.0145 |

system: PSN1; experiment: cells; type: functional, cell-based, Homo sapiens; conditions: Homo sapiens, PSN1;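 also: suppression of growth of human PSN1 cells, read out by a cell viability assay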
Description: SANGER: Inhibition of human PSN1 cell growth in a cell viability assay.

| Compound | IC50 [µM] |
| --- | --- |
| Nc1ccn([C@@H]2O[C@H](CO)[C@@H](O)C2(F)F)c(=O)n1 [GEMCITABINE] | < 0.004 |

system: COR-L88; experiment: cells; type: functional, cell-based, Homo sapiens; conditions: Homo sapiens, COR-L88;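 also: growth inhibition of COR-L88 cells, read out with a cell viability assay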
Description: SANGER: Inhibition of human COR-L88 cell growth in a cell viability assay.

| Compound | IC50 [µM] |
| --- | --- |
| Nc1ccn([C@@H]2O[C@H](CO)[C@@H](O)C2(F)F)c(=O)n1 [GEMCITABINE] | > 1.02 |

system: LU-139; experiment: cells; type: functional, cell-based, Homo sapiens; conditions: Homo sapiens, LU-139
Description: SANGER: Inhibition of human LU-139 cell growth in a cell viability assay.

| Compound | IC50 [µM] |
| --- | --- |
| Nc1ccn([C@@H]2O[C@H](CO)[C@@H](O)C2(F)F)c(=O)n1 [GEMCITABINE] | 0.0146 |

system: LB373-MEL-D; experiment: cells; type: functional, cell-based, Homo sapiens; conditions: Homo sapiens, LB373-MEL-D;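 also: growth inhibition of the cell line, read out in a cell viability assay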
Description: SANGER: Inhibition of human LB373-MEL-D cell growth in a cell viability assay.

| Compound | IC50 [µM] |
| --- | --- |
| Nc1ccn([C@@H]2O[C@H](CO)[C@@H](O)C2(F)F)c(=O)n1 [GEMCITABINE] | > 1.02 |

system: SW 954; experiment: cells; type: functional, cell-based, Homo sapiens; conditions: Homo sapiens, SW 954;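 also: growth inhibition of SW954 human cancer cells, read out as cell viability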
Description: SANGER: Inhibition of human SW954 cell growth in a cell viability assay.

| Compound | IC50 [µM] |
| --- | --- |
| Nc1ccn([C@@H]2O[C@H](CO)[C@@H](O)C2(F)F)c(=O)n1 [GEMCITABINE] | 0.0237 |

system: KURAMOCHI; experiment: cells; type: functional, cell-based, Homo sapiens; conditions: Homo sapiens, KURAMOCHI;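 also: growth inhibition of KURAMOCHI cells, read out with a cell viability assay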
Description: SANGER: Inhibition of human KURAMOCHI cell growth in a cell viability assay.

| Compound | IC50 [µM] |
| --- | --- |
| Nc1ccn([C@@H]2O[C@H](CO)[C@@H](O)C2(F)F)c(=O)n1 [GEMCITABINE] | > 1.02 |

system: MC116; experiment: cells; type: functional, cell-based, Homo sapiens; conditions: Homo sapiens, MC116;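 also: growth inhibition of MC116 cells, read out with a cell viability assay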
Description: SANGER: Inhibition of human MC116 cell growth in a cell viability assay.

| Compound | IC50 [µM] |
| --- | --- |
| Nc1ccn([C@@H]2O[C@H](CO)[C@@H](O)C2(F)F)c(=O)n1 [GEMCITABINE] | 0.482 |

system: KE-37; experiment: cells; type: functional, cell-based, Homo sapiens; conditions: Homo sapiens, KE-37;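 also: growth inhibition of KE-37 cells, read out with a cell viability assay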
Description: SANGER: Inhibition of human KE-37 cell growth in a cell viability assay.

| Compound | IC50 [µM] |
| --- | --- |
| Nc1ccn([C@@H]2O[C@H](CO)[C@@H](O)C2(F)F)c(=O)n1 [GEMCITABINE] | < 0.004 |

system: LU-134-A; experiment: cells; type: functional, cell-based, Homo sapiens; conditions: Homo sapiens, LU-134-A
Description: SANGER: Inhibition of human LU-134-A cell growth in a cell viability assay.

| Compound | IC50 [µM] |
| --- | --- |
| Nc1ccn([C@@H]2O[C@H](CO)[C@@H](O)C2(F)F)c(=O)n1 [GEMCITABINE] | 0.04 |

system: RCC10RGB; experiment: cells; type: functional, cell-based, Homo sapiens; conditions: Homo sapiens, RCC10RGB;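 also: growth inhibition of human RCC10RGB cells, read out by a cell viability assay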
Description: SANGER: Inhibition of human RCC10RGB cell growth in a cell viability assay.

| Compound | IC50 [µM] |
| --- | --- |
| Nc1ccn([C@@H]2O[C@H](CO)[C@@H](O)C2(F)F)c(=O)n1 [GEMCITABINE] | 0.634 |

system: NOS-1; experiment: cells; type: functional, cell-based, Homo sapiens; conditions: Homo sapiens, NOS-1;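 also: growth inhibition of the human NOS-1 cell line, read out with a cell viability assay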
Description: SANGER: Inhibition of human NOS-1 cell growth in a cell viability assay.

| Compound | IC50 [µM] |
| --- | --- |
| Nc1ccn([C@@H]2O[C@H](CO)[C@@H](O)C2(F)F)c(=O)n1 [GEMCITABINE] | 0.0324 |
